# Measurements published in patent publication US20230312524A1, “ALPHA1A-ADRENERGIC RECEPTOR AGONISTS AND METHODS OF USE” (CuraSen Therapeutics, Inc., priority 2020, published 2023).
# Structures can show the parent of a compound that is named as a salt. Where two headings read alike, the source gives them in different places.
# Legend:
# [1] = target: T1, α1A-ARS (Homo sapiens, UniProt P35348); assay: Calcium flux assay (Calcium 6 dye) in cells expressing an α1-AR; assay type: cell-based; details: for Emax: read-out: Average Emax
# T1 sequence (P35348 1-466): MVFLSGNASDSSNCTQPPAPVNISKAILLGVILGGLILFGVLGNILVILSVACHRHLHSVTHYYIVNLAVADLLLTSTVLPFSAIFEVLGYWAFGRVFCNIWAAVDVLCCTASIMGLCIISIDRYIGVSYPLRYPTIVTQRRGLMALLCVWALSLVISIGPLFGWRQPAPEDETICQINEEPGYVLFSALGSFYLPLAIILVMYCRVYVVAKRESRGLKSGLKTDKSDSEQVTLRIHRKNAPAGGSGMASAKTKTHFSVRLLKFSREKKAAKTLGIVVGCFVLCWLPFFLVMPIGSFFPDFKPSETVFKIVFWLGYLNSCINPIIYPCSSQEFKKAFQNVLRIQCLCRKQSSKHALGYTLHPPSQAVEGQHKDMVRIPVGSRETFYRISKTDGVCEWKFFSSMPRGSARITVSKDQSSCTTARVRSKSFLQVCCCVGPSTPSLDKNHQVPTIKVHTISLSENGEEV
# Description: Calcium flux experimental design: alpha-1 adrenergic receptors (α1-ARs) couple to Gq proteins, which results in downstream activation of phospholipase C and release of calcium from intracellular stores. Intracellular calcium increase upon α1-AR activation can be detected by Calcium 6 dye.
# Cell preparation: cells expressing an α1-AR were washed in warmed phosphate-buffered saline to remove medium and harvested using versene (Caisson Labs, catalog #EDL01).
# Media was removed from cells by tapping plates upside-down on absorbent wipes, followed by 15 second upside-down 50×g centrifugation, again on absorbent wipes. 12 μL cell dye solution was added to cells using a reagent dispenser (Integra viaFILL) and cells were incubated for 90 minutes at 37° C., 5% CO2.
# Compound preparation: candidate alpha-adrenergic compounds, dissolved to 10 mM in DMSO, were diluted in_assay buffer (HBSS/H-EPES containing 2 mM CaCl2 and 2 mM probenecid sodium salt). […] On all assay plates, vehicle (DMSO) and positive control (10 μM epinephrine) conditions were included on the plate, as well as a dose-response curve of epinephrine. […] 384 well compound plates were centrifuged briefly at 250×g, sealed (Axygen PCR-SP) and incubated at 37° C. until the 90 minute cell dye incubation was complete.
# Calcium 6 stained cells and 384 well compound plates were loaded onto the Flexstation and incubated on the machine for 5 minutes before initiating the assay.
# For each assay well, baseline Calcium 6 fluorescence was detected for 18 seconds prior to 12 μL compound addition at 12 μL per second. Changes in Calcium 6 fluorescence were detected for a further 22 seconds, for a total read time of 40 seconds. All detection was performed with medium gain sensitivity, bottom read, with 6 flashes per read.
# Data analysis: for calcium flux, analysis of maximum change from baseline over the 40-second read time was determined using Softmax Pro and data was exported as raw text files. Potency estimates (EC50) were derived from dose response curves (maximum change from baseline versus the log concentration of test compound) fit by four-parameter nonlinear regression using Graphpad Prism. Efficacy was determined by comparing the magnitude of the test compound signal window (fitted curve max−min) with the signal window of the full agonist control, epinephrine. […] All experiments were repeated a minimum of three times, with the average (mean) potency and maximum effect relative to the within-plate full agonist dose-response comparator reported.
# [2] = target: T2, α1A-adrenergic receptor (Homo sapiens, UniProt P35348); details: as compared to noradrenaline; FLIPR assay; Blue et al., Table 1; cited from earlier work
# T2 sequence (P35348 1-466): T1 sequence (P35348 1-466)
# [3] = target: T2, α1A-adrenergic receptor; details: as compared to noradrenaline; InsPs accumulation assay; Blue et al., Table 1; cited from earlier work
# [4] = calcium flux, α1A-AR, maximum effect relative to full agonist epinephrine
# [5] = calcium flux, α1A-AR, mean of at least three experiments, read-out: Average PEC50
SMILES,"Emax [1, 4] [%]","EC50 [1, 5] [nM]",Emax [1] [%],other results
Clc1ccc(CC2=NCCN2)c(Cc2ccccc2)c1 [Compound 120],< 20,> 1000,–,–
CCC(F)(F)c1cc(Cl)ccc1CC1=NCCN1 [Compound 121],–,10 to 977,21 to 60,–
Clc1ccc(CC2=NCCN2)c(N2CCCC2)c1 [Compound 122],> 61,10 to 977,–,–
Cc1cc(Cl)cc(C)c1CC1=NCCN1 [Compound 123],–,10 to 977,> 61,–
COCc1cc(Cl)ccc1CC1=NCCN1 [Compound 124],21 to 60,10 to 977,–,–
Cc1cc(Cl)cc(Cl)c1CC1=NCCN1 [Compound 125],–,10 to 977,> 61,–
Cc1c(CC2=NCCN2)cccc1C(F)(F)F [Compound 126],–,10 to 977,21 to 60,–
Cc1ccc(C(F)(F)F)cc1CC1=NCCN1 [Compound 127],–,10 to 977,> 61,–
Cc1cc(OC(F)(F)F)ccc1CC1=NCCN1 [Compound 128],–,10 to 977,21 to 60,–
Cc1cc(OC(F)F)ccc1CC1=NCCN1 [Compound 129],–,10 to 977,21 to 60,–
Cc1cc(CC2=NCCN2)cc(C(F)(F)F)c1 [Compound 130],–,10 to 977,> 61,–
FC(F)(F)c1cccc(CC2=NCCN2)c1Cl [Compound 131],–,10 to 977,21 to 60,–
FC(F)(F)c1ccc(Cl)c(CC2=NCCN2)c1 [Compound 132],–,10 to 977,> 61,–
FC(F)(F)c1ccc(CC2=NCCN2)c(Cl)c1 [Compound 133],–,10 to 977,21 to 60,–
FC(F)(F)c1cccc(Cl)c1CC1=NCCN1 [Compound 134],–,10 to 977,> 61,–
FC(F)(F)Oc1ccc(CC2=NCCN2)c(Cl)c1 [Compound 135],–,10 to 977,21 to 60,–
FC(F)Oc1ccc(CC2=NCCN2)c(Cl)c1 [Compound 136],–,10 to 977,21 to 60,–
CCC(F)(F)c1c(Cl)cccc1CC1=NCCN1 [Compound 137],–,10 to 977,21 to 60,–
FC(F)c1ccc(CC2=NCCN2)c(Cl)c1 [Compound 138],–,10 to 977,> 61,–
Cc1c(CC2=NCCN2)ccc(S(C)(=O)=O)c1Cl [Compound 139],21 to 60,> 1000,–,–
Cc1c(CC2=NCCN2)ccc(S(=O)(=O)CF)c1Cl [Compound 140],> 61,> 1000,–,–
CCc1c(CC2=NCCN2)ccc(S(=O)(=O)CF)c1Cl [Compound 141],> 61,> 1000,–,–
C[C@@H](F)c1cc(Cl)ccc1CC1=NCCN1 [Compound 142],–,10 to 977,21 to 60,–
CCc1c(CC2=NCCN2)ccc(S(C)(=O)=O)c1Cl [Compound 144],21 to 60,> 1000,–,–
C[C@H](O)c1cc(Cl)ccc1CC1=NCCN1 [Compound 145],< 20,> 1000,–,–

SMILES,"Emax [1, 4] [%]","EC50 [1, 5] [nM]",Emax [1] [%],other results
C[C@@H](O)c1cc(Cl)ccc1CC1=NCCN1 [Compound 146],< 20,> 1000,–,–
C[C@H](F)c1cc(Cl)ccc1CC1=NCCN1 [Compound 147],–,10 to 977,21 to 60,–
Cc1cc(CC2=NCCN2)cc(OC(F)F)c1 [Compound 148],–,10 to 977,> 61,–
Cc1c(CC2=NCCN2)ccc(S(=O)(=O)C(F)F)c1Cl [Compound 149],21 to 60,> 1000,–,–
CCc1c(CC2=NCCN2)ccc(S(=O)(=O)C(F)(F)F)c1Cl [Compound 150],21 to 60,> 1000,–,–
CC(F)(F)c1cc(OC(F)F)ccc1CC1=NCCN1 [Compound 151],–,10 to 977,21 to 60,–
Clc1ccc(CC2=NCCN2)cc1 [Compound 152],–,> 1000,< 20,–
Clc1ccccc1CC1=NCCN1 [Compound 153],–,10 to 977,< 20,–
FC(F)(F)c1ccccc1CC1=NCCN1 [Compound 154],–,> 1000,21 to 60,–
Cc1ccccc1CC1=NCCN1 [Compound 155],–,10 to 977,21 to 60,–
COc1ccccc1CC1=NCCN1 [Compound 156],–,10 to 977,21 to 60,–
CC(F)(F)c1ccc(CC2=NCCN2)c(Cl)c1 [Compound 157],–,10 to 977,> 61,–
c1ccc(-c2ncco2)c(CC2=NCCN2)c1 [Compound 158],21 to 60,10 to 977,–,–
Cc1c(CC2=NCCN2)ccc(S(=O)(=O)C(F)(F)F)c1Cl [Compound 159],21 to 60,> 1000,–,–
FC(F)Oc1cccc(CC2=NCCN2)c1Cl [Compound 160],–,10 to 977,> 61,–
FC(F)Oc1ccc(Cl)c(CC2=NCCN2)c1 [Compound 161],–,10 to 977,> 61,–
CC(F)(F)c1cc(OC(F)(F)F)ccc1CC1=NCCN1 [Compound 162],21 to 60,> 1000,–,–
C[C@H](O)c1ccc(CC2=NCCN2)c(Cl)c1 [Compound 163],> 61,10 to 977,–,–
C[C@@H](O)c1ccc(CC2=NCCN2)c(Cl)c1 [Compound 164],> 61,< 9.77,–,–
Cc1ccc(OC(F)(F)F)cc1CC1=NCCN1 [Compound 165],–,–,> 61,EC50 [1]: 10 to 977 nM
FC(F)(F)Oc1cccc(CC2=NCCN2)c1Cl [Compound 166],–,10 to 977,21 to 60,–
FC(F)(F)Oc1ccc(Cl)c(CC2=NCCN2)c1 [Compound 167],–,10 to 977,> 61,–
"Cc1c(OCC2=NCCN2)ccc(Cl)c1NS(C)(=O)=O [RO 115-1240 (dabuzalgron) HCl salt, dabuzalgron]",–,–,–,intrinsic activity [2]: 0.51; intrinsic activity [3]: 0.27
"Cc1c(OCC2=NCCN2)ccc(Cl)c1NS(C)(=O)=O [RO 115-1240 (dabuzalgron) free base, dabuzalgron]",–,–,–,intrinsic activity [3]: 0.31
